Results published in patent US4812482A, “Application of α-[[(2-hydroxy-1, 1-dimethyl-ethyl) amine] methyl] benzene methanol hydrochloride (EL-508) as a drug with antiinflammatory action” (Especialidades Latinas Medicamentos Universales, S.A. …, priority 1987, dated 1989).
Where a name gives a salt, the structure may show the parent alone. Read-outs that look alike come from different tables or passages of the source.

Experiments:
[1] = test system: vascular permeability (xylol); test: vascular/capillary permeability, xylol-induced extravasation; assay type: in vivo; settings: for reduction of extravasation induced by xylol: solution for topical application
From the text: (§1) In these tests Benzidamine HC1 lacked action.

carrageenin peritonitis = test: carrageenin-induced peritonitis, oral; assay type: in vivo; settings: 100 mg/Kg
croton oil oedema = test: croton oil oedema, topical application; assay type: in vivo; settings: 6% aqueous or alcoholic solutions
From the text: (§2) Further, it is to be noted that the antiinflammatory activity of EL-508, after its topical application, in 6% aqueous or alcoholic solutions in acute experimental processes, is summarized in the following table in comparison to 6% benzidamine HC1 as a reference drug: […]

kaolin oedema [2] = test: kaolin oedema, topical application; assay type: in vivo; settings: 6% aqueous or alcoholic solutions
From the text: as §2

carrageenin oedema [3] = test: carrageenin oedema, topical application; assay type: in vivo; settings: 6% aqueous or alcoholic solutions
From the text: as §2

[4] = test system: vascular permeability (chloroform); test: vascular/capillary permeability, chloroform-induced extravasation; assay type: in vivo; settings: for reduction of extravasation induced by chloroform: solution for topical application
From the text: as §1

ovoalbumin oedema [5] = test: ovoalbumin oedema, topical application; assay type: in vivo; settings: 6% aqueous or alcoholic solutions
From the text: as §2

formalin peritonitis = test: formalin-induced peritonitis, oral; assay type: in vivo; settings: 100 mg/Kg
ovoalbumin oedema [6] = test: ovoalbumin-induced acute oedema, oral route; assay type: in vivo; settings: rat, dose which produces 50% of oedema inhibition
From the text: (§3) ED50 are indicated, these corresponding to the dose which produces 50% of oedema inhibition.

peripheral blood flow = test: peripheral blood flow; settings: in vivo
acute toxicity LD50, rat = settings: in vivo
carrageenin oedema [7] = test: carrageenin-induced acute oedema, oral route; assay type: in vivo; settings: rat, dose which produces 50% of oedema inhibition
From the text: as §3

carrageenin abscess = test: carrageenin abscess, oral route; assay type: in vivo; settings: rat, dose which produces 50% of oedema inhibition
From the text: as §3

[8] = acute and chronic toxicity and tolerance, summary; settings: in vivo
[9] = test system: vaginitis of unknown ethiology or atrophic vaginitis and specific infectious vaginitis; test: clinical trials in vaginitis, vaginal solutions; assay type: in vivo, human; settings: vaginal solutions at 5% and 0,2%
Description: Further, as to the pharmaceutical forms of solutions for vaginal applications at 5% and 0,2% various clinical trials were performed in patients with vaginitis of unknown ethiology or atrophic vaginitis and specific infectious vaginitis.

[10] = test system: skin, genital and conjunctival mucous membranes; parameters: species or system animals; settings: in vivo
[11] = acute toxicity LD50, mouse; settings: in vivo
kaolin oedema [12] = test: kaolin-induced acute oedema, oral route; assay type: in vivo; settings: rat, dose which produces 50% of oedema inhibition
From the text: as §3

[13] = test system: skin, genital and conjunctival mucous membranes; test: topical tolerance in human volunteers; assay type: in vivo; settings: solution
[14] = test system: chronic inflammatory processes; test: experimental chronic inflammatory processes; assay type: in vivo
formol oedema = test: formol-induced acute oedema, oral route; assay type: in vivo; settings: rat, dose which produces 50% of oedema inhibition
From the text: as §3

acute inflammation = test: experiments of acute inflammation, oral and topical, summary; assay type: in vivo
From the text: In looking for a drug with intense topical antiinflammatory activity and good tolerance, the compound α-[[(2-hydroxy-1, 1-dimethyl-ethyl) amine]methyl]benzene methanol hydrochloride was syntheiszed and developed, and its chemical structure is completely different from that of conventional non-steroid anti-inflammatory drugs.

dogs = test: chronic toxicity over six months, dogs; assay type: in vivo; settings: p.o., up to 100 mg/kg/day
inflammatory processes = test: therapeutic index in the different experimental models; assay type: in vivo; settings: vs reference compounds
adrenalectomized rats = test: antiinflammatory effect in adrenalectomized rats; assay type: in vivo
[15] = test system: muscular-ligamentous pathological processes: luxations, sprains, contusions; test: clinical trial in muscular-ligamentous pathological processes, 6% aerosol; assay type: in vivo, human
From the text: Several clinical trials have been carried out with different pharmaceutical compositions with α-[[(2-hydroxy-1, 1-dimethyl-ethyl) amine]methyl]benzene methanol hydrocholride (EL-508) as active principle. In the 6% aerosol pharmaceutical composition the therapeutic action was studied in muscular-ligamentous pathological processes: luxations, sprains, contusions and the like.

ulcerogenic action = settings: in vivo
[16] = test system: skin, conjunctive and vaginal mucous membranes; test: topical tolerance of the aqueous solution after repeated applications; assay type: in vivo
rats = test: chronic toxicity over six months, rats; assay type: in vivo; settings: p.o., up to 100 mg/kg/day

CN(C)CCCOc1nn(Cc2ccccc2)c2ccccc12 [Benzidamine HCl, reference compound]
reduction of extravasation induced by xylol [1]: lacked action
percentage of inhibition, Carrageenin perit. (carrageenin peritonitis): 31,3%
Inhibition % of oedemas, Croton oil (croton oil oedema): 44%
Inhibition % of oedemas, Kaolin (kaolin oedema [2]): 0%
Inhibition % of oedemas, carrageenin (carrageenin oedema [3]): 7%
reduction of extravasation induced by chloroform [4]: lacked action
Inhibition % of oedemas, ovoalbumin (ovoalbumin oedema [5]): 42,0%
percentage of inhibition, Formalin perit. (formalin peritonitis): 15,6%

CC(C)(CO)NCC(O)c1ccccc1 (stereo not drawn) [EL-508, α-[[(2-hydroxy-1,1-dimethyl-ethyl)amine]methyl]benzene methanol hydrochloride]
ED50 (ovoalbumin oedema [6]): 16.7 mg/kg
activity against capillary permeability increases induced by xylol ([1]; all the administration routes): highly active
reduction of extravasation induced by xylol [1]: 50%
effect on peripheral blood flow (peripheral blood flow): did not modify at all peripheral blood flow
LD50 (acute toxicity LD50, rat; ip): 350 mg/kg
LD50 (acute toxicity LD50, rat; iv): 80 mg/kg
LD50 (acute toxicity LD50, rat; po): 2080 mg/kg
ED50 (carrageenin oedema [7]): 29.8 mg/kg
ED50 (carrageenin abscess): 9.4 mg/kg
acute and chronic toxicity [8]: acute and chronic toxicity was very low
systematic and topical tolerance [8]: systematic and topical tolerance has been demonstrated
undesirable side effects [8]: no undesirable side effects
percentage of inhibition, Carrageenin perit. (carrageenin peritonitis): 70,8%
activity on carrageenin peritonitis compared with reference drugs (carrageenin peritonitis; equal doses): more active than the reference drugs
efficacy in vaginitis [9]: more efficent in these indications than iodic povidone and placebo
topical tolerance [10]: perfectly tolerated
LD50 ([11]; ip): 295 mg/kg
LD50 ([11]; iv): 79 mg/kg
LD50 ([11]; po): 1020 mg/kg
ED50 (kaolin oedema [12]): 44.9 mg/kg
topical tolerance [13]: perfectly tolerated
Inhibition % of oedemas, Croton oil (croton oil oedema): 30%
Inhibition % of oedemas, Kaolin (kaolin oedema [2]): 47,5%
Inhibition % of oedemas, carrageenin (carrageenin oedema [3]): 48%
activity on primary inflammatory phenomena [14]: demonstrated its activity on primary inflammatory phenomena
ED50 (formol oedema): 21.7 mg/kg
activity against capillary permeability increases induced by chloroform ([4]; all the administration routes): highly active
reduction of extravasation induced by chloroform [4]: 50%
antiinflammatory activity (acute inflammation; oral and topical route, acute inflammation): great antiinflammatory activity
antiinflammatory effect compared with reference products (acute inflammation; vs fenylbutazone, pyridil-3-methylamine salicilate, benzidamine salicilate, etc.): higher than the referenced products used
undesirable effects in chronic toxicity study (dogs): no undesirable effects attributable to the product
therapeutic indices (inflammatory processes): considerably higher than for the reference compounds
antiinflammatory effect (adrenalectomized rats): antiinflammatory effect is direct, without central or hormaonal stimulus
Inhibition % of oedemas, ovoalbumin (ovoalbumin oedema [5]): 40,6%
therapeutic action [15]: therapeutic action higher than pyiridil-3-methyl amine salicylate and placebo
ulcerogenic action (ulcerogenic action): slight ulcerogenic action
percentage of inhibition, Formalin perit. (formalin peritonitis): 28,1%
activity on formalin-induced peritonitis compared with reference drugs (formalin peritonitis; equal doses): more active than the reference drugs
topical tolerance [16]: well tolerated
undesirable effects in chronic toxicity study (rats): no undesirable effects attributable to the product

CCCCC1C(=O)N(c2ccccc2)N(c2ccccc2)C1=O [Fenilbutazone, reference compound]
ED50 Ovoalbumin (ovoalbumin oedema [6]): Inactive
ED50 (carrageenin oedema [7]): 200 mg/kg
ED50 (carrageenin abscess): 80 mg/kg

CCCCC1C(=O)N(c2ccccc2)N(c2ccc(O)cc2)C1=O (centres unmarked) [Oxyphenylbutazone, reference compound]
percentage of inhibition, Carrageenin perit. (carrageenin peritonitis): 58,8%
percentage of inhibition, Formalin perit. (formalin peritonitis): 7,5%
